How the values were obtained:
Format in all cases: cell-based
[1] = tested on: carbapenem-resistant Acinetobacter baumannii (KUMC.2014.90); experiment: Rezazurin assay, MIC and MBC, carbapenem-resistant strain KUMC.2014.90
[2] = tested on: carbapenem-resistant Acinetobacter baumannii (KUMC.2014.91); experiment: Rezazurin assay, MIC and MBC, carbapenem-resistant strain KUMC.2014.91
[3] = tested on: Acinetobacter baumannii, which is a normal strain; experiment: Rezazurin assay, MIC and MBC, normal strain (control)

Compound: CC1(C)S[C@@H]2[C@H](NC(=O)[C@H](N)c3ccccc3)C(=O)N2[C@H]1C(=O)O [Ampicillin]
- MIC 50% ([1]; Acinetobacter baumannii (KUMC.2014.90), 50% inhibitory concentration, testing range 0.45~500): No effect
- MIC 80% ([1]; Acinetobacter baumannii (KUMC.2014.90), 80% inhibitory concentration, testing range 0.45~500): No effect
- MBC ([1]; Acinetobacter baumannii (KUMC.2014.90), testing range 0.45~500): No effect
- growth inhibition (in words) ([1]; carbapenem-resistant KUMC.2014.90 strain): unable to inhibit the growth
- MIC 50% ([2]; Acinetobacter baumannii (KUMC.2014.91), 50% inhibitory concentration, testing range 0.45~500): No effect
- MIC 80% ([2]; Acinetobacter baumannii (KUMC.2014.91), 80% inhibitory concentration, testing range 0.45~500): No effect
- MBC ([2]; Acinetobacter baumannii (KUMC.2014.91), testing range 0.45~500): No effect
- growth inhibition (in words) ([2]; carbapenem-resistant KUMC.2014.91 strain): unable to inhibit the growth
- growth inhibition (in words) [3]: inhibited the growth
- MIC50 ([3]; 50% inhibitory concentration, testing range 0.45~500): < 31.3 µg/mL
- MIC80 ([3]; 80% inhibitory concentration, testing range 0.45~500): < 62.5 µg/mL
- MBC ([3]; testing range 0.45~500): < 62.5 µg/mL
